In ChEMBL document CHEMBL4627312, “Anilinopyrazines as potential mitochondrial uncouplers” (Bioorg Med Chem Lett, 2020) one finds Emax, Activity and EC50 data, which are given here for 29 compounds.

Assay [1] concerns L6. In words: Induction of mitochondrial uncoupling in rat L6 cells assessed as oxygen consumption rate measured after 45 to 90 mins by seahorse XFe96 analyser based assay relative to control. The note with it: Mitochondria.
Assay [2] concerns L6. Description: Induction of mitochondrial uncoupling in rat L6 cells assessed as oxygen consumption rate at 0.01 to 50 uM measured after 45 to 90 mins by seahorse XFe96 analyser based assay. As to conditions: Mitochondria.
Assay [3] can be described thus: Induction of mitochondrial uncoupling in rat L6 cells assessed as oxygen consumption rate measured after 45 to 90 mins by seahorse XFe96 analyser based assay. The assay is classed as mitochondria, Mitochondria.

Active and inactive are the calls of the source. No cut-off for these calls is given here.

By Emax is commonly meant the maximal effect, on the per cent scale that the assay sets. `FC(F)(F)c1ccc(Nc2cnc(Nc3ccc(C(F)(F)F)cc3)cn2)cc1`: the Emax in the assay with L6 [1] was 107%. The outcome in the assay on L6 [2] was inactive. For `FC(F)(F)c1cccc(Nc2nc(Nc3cccc(C(F)(F)F)c3)nc(Nc3cccc(C(F)(F)F)c3)n2)c1` the same measures were 103% and “inactive”. The matching figures for `COc1ccccc1Nc1nc(Nc2ccccc2OC)nc(Nc2ccccc2OC)n1`: 103% and “inactive”. For `FC(F)(F)c1ccc(Nc2nc(Nc3ccc(C(F)(F)F)cc3)nc(Nc3ccc(C(F)(F)F)cc3)n2)cc1` the same measures were 100% and “inactive”. As for `Fc1cccc(Nc2nccnc2Nc2cccc(F)c2F)c1F`, in the assay on L6 [1], the Emax is 108%. Further, the result in the assay with L6 [2] was inactive. For `COc1ccc(Nc2nc(Nc3ccc(OC)cc3)nc(Nc3ccc(OC)cc3)n2)cc1` the same measures were 104% and “inactive”.

As usually defined, the EC50 is the midpoint of the concentration-response curve. For `FC(F)(F)Oc1cccc(Nc2nccnc2Nc2cccc(OC(F)(F)F)c2)c1`, the Emax in the assay on L6 [1] is 343%. Besides, the concentration for a half-maximal effect (EC50) in assay [3] stood at 12 µM. For `Fc1ccccc1Nc1nc(Nc2ccccc2F)nc(Nc2ccccc2F)n1`, in the assay on L6 [1], the maximal effect (Emax) came to 102%. For the same compound, the outcome in the assay on L6 [2] was inactive. The matching figures for `COc1cccc(Nc2nc(Nc3cccc(OC)c3)nc(Nc3cccc(OC)c3)n2)c1`: 103% and “inactive”. As for `FC(F)(F)Oc1cccc(Nc2cnc(Nc3cccc(OC(F)(F)F)c3)cn2)c1`, the Emax with L6 [1] is 101%. The outcome with L6 [2] was inactive. On to `FC(F)(F)c1ccc(Nc2nccnc2Nc2ccc(C(F)(F)F)cc2)cc1`, for which the maximum response (Emax) in the assay with L6 [1] is 260%. Also, the half-maximal effective concentration (EC50) in assay [3] worked out at 2.5 µM.

Regarding `Fc1ccc(C(F)(F)F)cc1Nc1nccnc1Nc1cc(C(F)(F)F)ccc1F`, in the assay with L6 [1], the maximal response (Emax) is 100%. For the compound `Fc1cc(C(F)(F)F)ccc1Nc1nccnc1Nc1ccc(C(F)(F)F)cc1F`, in the assay on L6 [1], the Emax was determined as 164%. In assay [3], the concentration for a half-maximal effect (EC50) stood at 8.5 µM. As for `COc1ccccc1Nc1nccnc1Nc1ccccc1OC`, the Emax in the assay on L6 [1] was found to be 102%. As for `FC(F)(F)Oc1cccc(Nc2cncc(Nc3cccc(OC(F)(F)F)c3)n2)c1`, the Emax in the assay on L6 [1] worked out at 105%. The result in the assay with L6 [2] was inactive. For `FC(F)(F)Oc1ccccc1Nc1nccnc1Nc1ccccc1OC(F)(F)F` the same measures were 114% and “inactive”. In the case of `FC(F)(F)Oc1ccc(Nc2nccnc2Nc2ccc(OC(F)(F)F)cc2)cc1`, the Emax in the assay with L6 [1] was 258%. For the same compound, the half-maximal effective concentration (EC50) in assay [3] is 5.9 µM. Regarding `COc1cccc(Nc2nccnc2Nc2cccc(OC)c2)c1`, the Emax with L6 [1] came to 101%. For `Fc1cccc(Nc2nccnc2Nc2cccc(F)c2)c1`, the Emax in the assay on L6 [1] was determined as 106%. In the assay on L6 [2], the outcome was inactive. The matching figures for `FC(F)(F)Oc1ccc(Nc2cncc(Nc3ccc(OC(F)(F)F)cc3)n2)cc1`: 107% and “inactive”. For `FC(F)(F)c1cccc(Nc2cnc(Nc3cccc(C(F)(F)F)c3)cn2)c1` the same measures were 140% and “inactive”. Turning to `FC(F)(F)c1cc(Nc2nccnc2Nc2cc(C(F)(F)F)cc(C(F)(F)F)c2)cc(C(F)(F)F)c1`, the maximum response (Emax) in the assay with L6 [1] was determined as 148%. Besides, in assay [3], the half-maximal effective concentration (EC50) came to 17 µM. In the case of `FC(F)(F)Oc1ccc(Nc2cnc(Nc3ccc(OC(F)(F)F)cc3)cn2)cc1`, the Emax in the assay on L6 [1] stood at 102%. Moreover, in the assay with L6 [2], the result was inactive.

Consider `Fc1ccc(Nc2nccnc2Nc2ccc(F)cc2)cc1`, for which, in the assay on L6 [1], the maximum response (Emax) was determined as 101%. Moreover, the outcome with L6 [2] was inactive. For `FC(F)(F)c1ccc(Nc2cncc(Nc3ccc(C(F)(F)F)cc3)n2)cc1` the same measures were 103% and “inactive”. With `FC(F)(F)c1cccc(Nc2nccnc2Nc2cccc(C(F)(F)F)c2)c1`, the Emax in the assay on L6 [1] came to 181%. In assay [3], the concentration for a half-maximal effect (EC50) came out at 3 µM. As for `FC(F)(F)c1ccccc1Nc1nccnc1Nc1ccccc1C(F)(F)F`, in the assay on L6 [1], the Emax was 104%.

For the compound `FC(F)(F)c1cc(Nc2cncc(Nc3cc(C(F)(F)F)cc(C(F)(F)F)c3)n2)cc(C(F)(F)F)c1`, the Emax with L6 [1] was found to be 105%. Moreover, the outcome with L6 [2] was inactive. The matching figures for `Fc1ccc(Nc2nccnc2Nc2ccc(F)cc2F)c(F)c1`: 109% and “inactive”.
